Patent publication US20220280594A1, “APPLICATION OF POLYPEPTIDE OR DERIVATIVE THEREOF” (CHENGDU HUITAI BIOMEDICINE CO., LTD., priority 2019, published 2022)
Ends that are not written are not given here. PEG = not defined here

Tests used:
Type in all cases: cell-based
[1] = test system: human colon cancer cells (HCT-116); test: scratch assay, migration of HCT-116 cells; conditions: HCT-116, 10 μM, 48 hours; control group 47.78 ± 6.07
Method in brief: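 Confluent HCT-116 monolayers were scratched, washed and cultured 48 h in 2% FBS medium with peptide at 10 μM versus PBS control, triplicate wells. Migration rate (%) = (original minus current scratch width)/original width × 100, from at least 3 images per well.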

[2] = test system: human breast cancer cells (MDA-MB-231); test: scratch assay, migration of MDA-MB-231 cells; conditions: MDA-MB-231, 10 μM, 48 hours; control group 36.19 ± 5.15
Method in brief: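 MDA-MB-231 monolayers (1-2×10^5 cells/well) were scratched, then kept 48 h in medium with 2% FBS containing polypeptide at 10 μM, with a PBS control, in triplicate wells. Migration rate (%) was taken from scratch width: (original − current)/original ×100.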

[3] = test system: human breast cancer cells (MCF-7); test: scratch assay, migration of MCF-7 cells; conditions: MCF-7, 10 μM, 48 hours; control group 30.97 ± 1.79
Method in brief: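 MCF-7 monolayers scratched, then cultured 48 hours in 2% FBS medium with test peptide at 10 μM versus PBS control, triplicate wells. Migration rate (%) = (original − current scratch width)/original width × 100, measured from images.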

[4] = test system: human non-small cell lung cancer cells (A549); test: scratch assay, migration of A549 cells; conditions: A549, 10 μM, 48 hours; control group 75.31 ± 8.19
Method in brief: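 Confluent A549 monolayers in 24-well plates were scratched, washed with PBS, then cultured 48 h in 2% FBS medium with peptide at 10 μM or PBS control, triplicate wells. Scratch width measured from images; migration rate (%) = (original − current width)/original width × 100.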

[5] = test system: human pancreatic cancer cells (PANC-1); test: scratch assay, migration of PANC-1 cells; conditions: PANC-1, 10 μM, 48 hours; control group 66.65 ± 3.37
Method in brief: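 PANC-1 monolayers were scratched, then cultured for 48 h with 10 μM test compound in 2% FBS medium, in three parallel wells per group against a PBS control. Migration rate (%) was calculated as (original minus current scratch width) / original width × 100, from imaged wells.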

[6] = test system: human pancreatic cancer cells (PANC-1); test: transwell migration assay, PANC-1 cells; conditions: PANC-1 transwell migration, 10 μM, 24 hours; control group 360 ± 60
Method in brief: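 Serum-free PANC-1 cells placed in the upper transwell chamber with complete medium below; after 4-5 h, peptide added to the upper chamber at a final 10 μM. Migration ran 24 h at 37 °C; cells on the membrane underside were methanol-fixed, crystal violet-stained and counted by microscopy.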

[7] = test system: human pancreatic cancer cells (PANC-1); test: transwell invasion assay, PANC-1 cells; conditions: PANC-1 transwell invasion, 10 μM, 24 hours; control group 727 ± 68
Method in brief: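 Serum-free PANC-1 cells were seeded in matrigel-coated upper chambers with complete medium below. After 4-5 hours at 37° C., peptide was added at 10 μM final. Following 24 hours, invaded cells on the lower membrane surface were fixed, crystal violet-stained, imaged and counted against untreated controls.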

[8] = test system: human liver cancer cells (HepG2); test: scratch assay, migration of HepG2 cells; conditions: HepG2, 10 μM, 48 hours; control group 71.01 ± 6.63
Method in brief: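 HepG2 monolayers scratched, then cultured 48 h in 2% FBS medium with test polypeptides at 10 μM versus PBS control, triplicate wells. Migration rate (%) computed from original versus current scratch width in images.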

Substance | Migration rate (%) (mean ± SD, P) [1] | Migration rate (%) (mean ± SD, P) [2] | Migration rate (%) (mean ± SD, P) [3] | Migration rate (%) (mean ± SD, P) [4] | Migration rate (%) (mean ± SD, P) [5] | Number of cells (mean ± SD, P), migrated cells [6] | Number of cells (mean ± SD, P), invaded cells [7] | Migration rate (%) (mean ± SD, P) [8]
N25: SEQ ID NO: 1 with substitution N18R and addition of two amino acids at the carboxyl terminal (YRVRFLAKENVTQDAEDRCT) | 18.70 ± 2.39,** % | 12.93 ± 4.38,** % | 9.16 ± 2.51,** % | 34.66 ± 7.73,** % | 25.36 ± 7.32,*** % | 217 ± 31,** | 247 ± 17,**** | 14.22 ± 7.10,*** %
N26: SEQ ID NO: 1 with substitution A15R, addition of one amino acid at the amino terminal and one at the carboxyl terminal (FYRVRFLAKENVTQDREDNC) | 9.81 ± 2.92,*** % | 19.02 ± 5.06,* % | 10.43 ± 3.34,** % | 25.04 ± 6.01,** % | 26.65 ± 6.37,*** % | 119 ± 17,*** | 231 ± 18,**** | 16.86 ± 7.90,*** %
N27: SEQ ID NO: 1 with addition of one amino acid at the carboxyl terminal and PEG modification at the carboxyl terminal (YRVRFLAKENVTQDAEDNC-{PEG}; reading uncertain) | 24.14 ± 3.00,** % | 9.62 ± 3.01,*** % | 8.40 ± 2.44,** % | 37.20 ± 6.23,** % | 27.19 ± 7.04,*** % | 143 ± 25,*** | 242 ± 35,**** | 39.99 ± 3.19,** %
N28: SEQ ID NO: 1 with deletion of positions 1-2 and 18 and PEG modification at the amino terminal ({PEG}-VRFLAKENVTQDAED; reading uncertain) | 9.19 ± 3.22,*** % | 9.36 ± 1.8,** % | 14.83 ± 5.38,* % | 17.20 ± 6.23,*** % | 32.25 ± 5.40,** % | 148 ± 21,*** | 247 ± 15,**** | 12.25 ± 8.40,*** %
N29: SEQ ID NO: 1 with deletion of positions 1-5 and 15-18 and PEG modification at the amino terminal ({PEG}-LAKENVTQD; reading uncertain) | 8.24 ± 2.32,*** % | 18 ± 4.47,* % | 19.15 ± 3.04,* % | 20.55 ± 3.73,*** % | 40.62 ± 4.97,* % | 178 ± 31,*** | 213 ± 17,**** | 10.62 ± 8.97,*** %
N30: SEQ ID NO: 1 with deletion of positions 1-5 and 15-18 and PEG modification at the carboxyl terminal (LAKENVTQD-{PEG}; reading uncertain) | 12.41 ± 2.99,*** % | 9.02 ± 2.02,*** % | 14.34 ± 4.06,* % | 24.57 ± 3.19,*** % | 16.60 ± 5.85,*** % | 243 ± 33,* | 237 ± 15,**** | 16.60 ± 7.85,*** %
N31: SEQ ID NO: 1 with deletion of positions 3, 4, 11 and 15-18 and PEG modification at the carboxyl terminal (YRFLAKENTQD-{PEG}; reading uncertain) | 7.39 ± 2.06,*** % | 18.7 ± 3.05,* % | 9.27 ± 2.23,** % | 24.44 ± 8.15,** % | 13.64 ± 7.59,*** % | 217 ± 40,** | 365 ± 57,*** | 13.64 ± 7.59,*** %
N32: SEQ ID NO: 1 with deletion of positions 1-3, addition of one amino acid and PEG modification at the carboxyl terminal (RFLAKENVTQDAEDNC-{PEG}; reading uncertain) | 8.17 ± 1.07,*** % | 13.33 ± 3.83,** % | 14.18 ± 2.82,** % | 28.06 ± 8.55,** % | 15.49 ± 8.35,*** % | 219 ± 13,*** | 251 ± 10,**** | 15.49 ± 8.35,*** %
N33: SEQ ID NO: 1 with deletion of positions 1-5, addition of one amino acid and PEG modification at the carboxyl terminal (LAKENVTQDAEDNC-{PEG}; reading uncertain) | 12.85 ± 3.12,*** % | 22.68 ± 3.02,* % | 18.97 ± 2.44,* % | 33.22 ± 4.51,** % | 39.27 ± 3.14,* % | 178 ± 14,*** | 345 ± 27,*** | 19.27 ± 8.14,*** %
N34: SEQ ID NO: 1 with A15R, addition of one amino acid at the carboxyl terminal, PEG modification at the amino terminal ({PEG}-YRVRFLAKENVTQDREDNC; reading uncertain) | 17.96 ± 3.84,** % | 17.34 ± 4.82,* % | 15.23 ± 4.39,* % | 30.51 ± 8.12,** % | 28.58 ± 3.87,*** % | 248 ± 19,* | 346 ± 30,*** | 18.58 ± 7.87,*** %
